# Experimental data reported in patent US20240391931A1 (Bristol-Myers Squibb Company, priority 2021, published 2024).
# Assays:
# HER2YVMA = HER2YVMA (Homo sapiens, UniProt P04626, INS775YVMA); experiment: Enzymatic assay HER2YVMA (method b); type: biochemical; parameters: purchased Viva biotech, Shanghai, China custom purification; details: [HER2YVMA]=5 nM, [ATP]=25 μM, [Peptide 22]=1 μM
# Summary of the method: (§1)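 Microfluidic mobility-shift kinase assay with Peptide 22 (1 μM) in HEPES pH 7.5, MnCl2, MgCl2, Tween 20, TCEP. HER2 WT 12.5 nM and HER2 YVMA 5 nM each used 25 μM ATP; EGFR WT 2 nM used 1 mM ATP. IC50 came from initial-velocity (0–3600 s) percent inhibition, fitted to a variable-slope model.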
# HER2 WT = target: T1, HER2 WT (Homo sapiens, UniProt P04626); experiment: Enzymatic assay HER2 WT (method a); type: biochemical; details: [HER2 WT]=12.5 nM, [ATP]=25 μM, [Peptide 22]=1 μM
# T1 construct: purchased ProQinase, Freiburg, Germany ERBB2 0108-0000-1
# Summary of the method: as §1
# [1] = target: T2, HER2 wildtype (WT) protein (Homo sapiens, UniProt P04626); experiment: HER2 signaling (pHER2 Tyr1248/total HER2 MSD) in BT474 cells; type: cell-based; details: 1.5 hr compound, 1% FBS
# T2 construct: BT474 and N87 cell lines which endogenously overexpress the HER2 wildtype (WT) protein; endogenous in cells; host or cells: BT474, N87
# Summary of the method: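 BT474, N87 (HER2 WT) and NCI-H1781 (HER2 G776delinsVC) cells were treated for 1.5 h at 37° C in 1% FBS medium with compound at 0.0005–1.1 μM. pHER2 Tyr1248 was measured by MSD on whole-cell lysates and normalized to total HER2 as % DMSO. EC50 came from a variable-slope sigmoidal fit.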
# HER2YVMA, sequence (P04626 with tags, fused parts or gaps INS775YVMA): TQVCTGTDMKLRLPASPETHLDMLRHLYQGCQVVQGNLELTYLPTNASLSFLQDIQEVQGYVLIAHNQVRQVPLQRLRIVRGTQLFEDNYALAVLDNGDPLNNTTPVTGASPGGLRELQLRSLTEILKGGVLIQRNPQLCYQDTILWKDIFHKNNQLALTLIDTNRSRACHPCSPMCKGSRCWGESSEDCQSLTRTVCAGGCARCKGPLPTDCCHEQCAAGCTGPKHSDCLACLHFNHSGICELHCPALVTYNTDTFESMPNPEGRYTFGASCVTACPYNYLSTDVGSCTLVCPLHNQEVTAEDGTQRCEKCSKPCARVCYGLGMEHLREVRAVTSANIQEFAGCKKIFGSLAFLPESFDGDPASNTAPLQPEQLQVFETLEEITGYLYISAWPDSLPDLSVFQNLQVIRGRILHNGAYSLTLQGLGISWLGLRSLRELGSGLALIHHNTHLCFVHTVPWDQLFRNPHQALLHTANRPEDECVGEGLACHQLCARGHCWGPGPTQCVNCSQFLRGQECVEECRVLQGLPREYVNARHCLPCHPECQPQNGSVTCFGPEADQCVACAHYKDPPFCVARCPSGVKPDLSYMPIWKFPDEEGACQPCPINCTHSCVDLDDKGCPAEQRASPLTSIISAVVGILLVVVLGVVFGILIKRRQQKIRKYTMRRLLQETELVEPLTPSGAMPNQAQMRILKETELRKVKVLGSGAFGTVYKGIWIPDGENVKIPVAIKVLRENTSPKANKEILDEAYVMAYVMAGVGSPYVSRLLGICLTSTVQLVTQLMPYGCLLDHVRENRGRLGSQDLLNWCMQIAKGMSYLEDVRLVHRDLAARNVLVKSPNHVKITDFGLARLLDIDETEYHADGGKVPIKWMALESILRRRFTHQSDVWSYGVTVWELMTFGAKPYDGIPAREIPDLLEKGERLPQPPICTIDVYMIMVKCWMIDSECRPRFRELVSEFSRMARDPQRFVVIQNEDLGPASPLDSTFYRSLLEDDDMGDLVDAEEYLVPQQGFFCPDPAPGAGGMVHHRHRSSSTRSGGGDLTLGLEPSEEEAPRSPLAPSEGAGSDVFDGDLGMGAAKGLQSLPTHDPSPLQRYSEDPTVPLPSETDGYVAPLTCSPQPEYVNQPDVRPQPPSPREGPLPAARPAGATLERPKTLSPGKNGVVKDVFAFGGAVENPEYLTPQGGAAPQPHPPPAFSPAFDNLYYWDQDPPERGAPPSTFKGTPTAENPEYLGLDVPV
# T2 sequence (P04626 23-1255): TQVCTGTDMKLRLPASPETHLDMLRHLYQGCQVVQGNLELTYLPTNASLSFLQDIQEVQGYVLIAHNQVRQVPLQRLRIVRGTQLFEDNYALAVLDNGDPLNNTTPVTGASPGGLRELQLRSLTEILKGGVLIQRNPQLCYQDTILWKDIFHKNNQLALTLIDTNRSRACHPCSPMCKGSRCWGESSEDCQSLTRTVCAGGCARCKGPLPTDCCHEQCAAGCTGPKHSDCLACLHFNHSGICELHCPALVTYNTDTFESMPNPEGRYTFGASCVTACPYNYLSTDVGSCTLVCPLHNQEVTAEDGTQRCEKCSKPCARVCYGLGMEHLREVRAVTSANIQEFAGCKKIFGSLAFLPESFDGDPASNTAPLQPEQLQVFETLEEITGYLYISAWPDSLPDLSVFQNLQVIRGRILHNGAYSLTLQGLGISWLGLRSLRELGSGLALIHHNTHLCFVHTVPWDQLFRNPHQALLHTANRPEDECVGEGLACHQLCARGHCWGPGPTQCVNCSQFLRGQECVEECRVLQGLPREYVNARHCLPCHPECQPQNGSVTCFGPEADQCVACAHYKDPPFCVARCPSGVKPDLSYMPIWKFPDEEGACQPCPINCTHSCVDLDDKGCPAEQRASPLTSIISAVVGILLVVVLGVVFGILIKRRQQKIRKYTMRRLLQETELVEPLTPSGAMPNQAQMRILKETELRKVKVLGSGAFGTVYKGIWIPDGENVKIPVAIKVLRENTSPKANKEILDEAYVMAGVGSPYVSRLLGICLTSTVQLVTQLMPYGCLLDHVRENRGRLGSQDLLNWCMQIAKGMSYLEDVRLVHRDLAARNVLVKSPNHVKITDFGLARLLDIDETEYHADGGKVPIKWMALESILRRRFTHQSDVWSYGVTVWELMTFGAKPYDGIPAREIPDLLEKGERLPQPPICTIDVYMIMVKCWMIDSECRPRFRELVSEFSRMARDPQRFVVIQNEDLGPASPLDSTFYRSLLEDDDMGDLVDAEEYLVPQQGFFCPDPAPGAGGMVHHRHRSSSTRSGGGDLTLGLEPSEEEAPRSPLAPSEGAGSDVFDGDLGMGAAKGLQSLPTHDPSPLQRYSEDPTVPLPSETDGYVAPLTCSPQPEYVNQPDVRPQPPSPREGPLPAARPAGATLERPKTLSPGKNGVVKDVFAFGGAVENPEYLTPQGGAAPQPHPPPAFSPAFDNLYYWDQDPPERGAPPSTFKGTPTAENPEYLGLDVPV
# T1 sequence (P04626 23-1255): as above
IC50 (HER2YVMA) [nM],IC50 (HER2 WT) [nM],EC50 [1] [nM],SMILES
< 100,< 100,< 100,CN(C/C=C/C(=O)N1CCc2c(sc3ncnc(Nc4ccc(Oc5ccc6ncnn6c5)c(Cl)c4)c23)C1)C(C)(C)C [Compound 91]
100 to 1000,100 to 1000,< 100,Cc1cc(Nc2ncnc3sc4c(c23)CCN(C(=O)/C=C/CN2CC(C)(C)OC(C)(C)C2)C4)ccc1Oc1ccc2ncnn2c1 [Compound 84]
< 100,< 100,< 100,Cc1ccc(Oc2ccc(Nc3ncnc4sc5c(c34)CCN(C(=O)/C=C/CN3C[C@H]4CC[C@@H](C3)O4)C5)cc2C)cn1 [Compound 66]
< 100,< 100,100 to 350,CNC(=O)CNC/C=C/C(=O)N1CCc2c(sc3ncnc(Nc4ccc(Oc5ccc(C)nc5)c(C)c4)c23)C1 [Compound 39]
< 100,< 100,< 100,Cc1ccc(Oc2ccc(Nc3ncnc4sc5c(c34)CCN(C(=O)/C=C/CN3CCC4(CCOC4)C3)C5)cc2C)cn1 (stereo not drawn) [Compound 67]
